These molecules were tested on recombinant BFT (rBFT) (assay: NFF-3 cleavage assay). Conditions: rBFT pre-incubated with compound 30 minutes at 37° C., then NFF-3 for 24 hours; read-out: NFF3 IC50.
Type: biochemical, B. fragilis
Description: A NFF-3 cleavage assay was used to test activity of recombinant BFT, before or after addition of various inhibitors. The NFF-3 cleavage assay was previously described by Goulas et al., PNAS, 2011, 108(5) 1856-1861, which is incorporated by reference herein in its entirety.
Initially, recombinant BFT (rBFT) (0.25, 0.5, 1, 2, 4, 8, or 16 μg/mL) was incubated at 37° C. with the fluorogenic substrate NFF-3 (Cayman Chemical) at a concentration of 2.5 μM, 5 μM, or 10 μM. After 18 hours, fluorescence was measured in a microplate fluorimeter.
Next, rBFT was pre-incubated with one or more test compounds at different concentrations for 30 minutes at 37° C. The rBFT-compound mixture was then added to NFF-3 and incubated for 24 hours at 37° C. Fluorescence was then measured in a microplate fluorimeter.

Point of comparison: O=C(NO)[C@@H](Cc1cccs1)N(Cc1ccc(Cl)cc1)S(=O)(=O)c1ccc(O)cc1 [Example 80], IC50 290 nM. Against it:
- CC(C)C[C@H](C(=O)NN)N(Cc1cccnc1)S(=O)(=O)c1ccc(O)cc1 [Example 34] — 97-fold higher, 28000 nM
- CCC(C)[C@H](C(=O)NO)N(Cc1cccnc1)S(=O)(=O)c1ccc(O)cc1 (some centres unmarked) [Example 36] — within 1.5-fold, 240 nM
- CC(C)C[C@H](C(=O)NO)N(Cc1cccnc1)S(=O)(=O)c1ccc(C(C)O)cc1 (some centres unmarked) [Example 37] — 170-fold higher, 49700 nM
- CC(=O)c1ccc(S(=O)(=O)N(Cc2cccnc2)[C@H](CC(C)C)C(=O)NO)cc1 [Example 38] — 21-fold higher, 6130 nM
- CC(C)C[C@H](C(=O)NO)N(Cc1cccnc1)S(=O)(=O)c1cccc(C(N)=O)c1 [Example 39] — 270-fold higher, 79300 nM
- CC(C)C[C@H](C(=O)NO)N(Cc1cccnc1)S(=O)(=O)c1ccc(NS(C)(=O)=O)cc1 [Example 41, (R)—N-hydroxy-4-methyl-2-((4-(methylsulfonamido)-N-(pyridin-3-ylmethyl)phenyl)sulfonamido) pentanamide] — 83-fold higher, 24100 nM
- CC(C)C[C@H](C(=O)NO)N(Cc1cccnc1)S(=O)(=O)c1ccc(N)cc1 [Example 43] — 10-fold higher, 2990 nM
- CCCC[C@H](C(=O)NO)N(Cc1cccnc1)S(=O)(=O)c1ccc(O)cc1 [Example 44] — 2.2-fold lower, 130 nM
- CC(C)C[C@H](C(=O)NO)N(Cc1cccnc1)S(=O)(=O)c1ccc(C(N)=O)cc1 [Example 46] — 21-fold higher, 6100 nM
- CC(C)C[C@H](C(=O)NO)N(Cc1cccnc1)S(=O)(=O)c1ccc(C#N)cc1 [Example 47] — 21-fold higher, 6090 nM
- O=C(NO)[C@@H](CC(F)F)N(Cc1cccnc1)S(=O)(=O)c1ccc(O)cc1 [Example 48] — 50-fold higher, 14600 nM
- CC(C)C[C@H](C(=O)NO)N(Cc1cccnc1)S(=O)(=O)c1ccc(NC=O)cc1 [Example 49, (R)-2-((4-formamido-N-(pyridin-3-ylmethyl)phenyl)-sulfonamido)-N-hydroxy-4-methyl pentanamide] — 28-fold higher, 8200 nM
- O=C(NO)[C@@H](CO)N(Cc1cccnc1)S(=O)(=O)c1ccc(O)cc1 [Example 50] — 1.8-fold higher, 510 nM
- CC(C)C[C@H](C(=O)NO)N(Cc1cccnc1)S(=O)(=O)c1ccc(-c2nnn[nH]2)cc1 [Example 51] — higher, > 200000 nM
- CC(C)C[C@H](C(=O)NO)N(Cc1cccnc1)S(=O)(=O)c1ccc(C(=N)N)cc1 [Example 52] — 96-fold higher, 27900 nM
- COC[C@H](C(=O)NO)N(Cc1cccnc1)S(=O)(=O)c1ccc(O)cc1 [Example 53] — 2-fold higher, 570 nM
- COCC[C@H](C(=O)NO)N(Cc1cccnc1)S(=O)(=O)c1ccc(O)cc1 [Example 54] — within 1.5-fold, 400 nM
- CC(C)CN(CC(=O)NO)S(=O)(=O)c1ccc(O)cc1 [Example 56] — 16-fold higher, 4620 nM
- CC[C@H](C(=O)NO)N(Cc1cccnc1)S(=O)(=O)c1ccc(O)cc1F [Example 57] — within 1.5-fold, 196 nM
- CC[C@H](C(=O)NO)N(Cc1cccnc1)S(=O)(=O)c1ccc(O)c(F)c1 [Example 58] — 1.8-fold higher, 510 nM
- CC[C@H](C(=O)NO)N(Cc1cccnc1)S(=O)(=O)c1ccc(O)c(Cl)c1 [Example 59] — 15-fold higher, 4220 nM
- COc1ccc(S(=O)(=O)N(Cc2cccnc2)[C@H](C(=O)NO)C(C)C)cc1 [Example 64] — 29-fold higher, 8280 nM
- COc1ccc(S(=O)(=O)N(Cc2ccccc2)[C@H](C(=O)NO)C(C)C)cc1F [Example 65] — 98-fold higher, 28500 nM
- O=C(NO)[C@@H](Cc1cocn1)N(Cc1cccnc1)S(=O)(=O)c1ccc(O)cc1 [Example 67] — 15-fold higher, 4250 nM
- CC(C)[C@@H](C(=O)NO)N(Cc1ccccc1)S(=O)(=O)c1ccc(O)c(F)c1 [Example 68] — 170-fold higher, 50100 nM
- CC(C)[C@@H](C(=O)NO)N(Cc1ccccc1)S(=O)(=O)c1cccc(C(F)(F)F)c1 [Example 69] — 2400-fold higher, 691000 nM
- CC[C@H](C(=O)NO)N(Cc1cccnc1)S(=O)(=O)CCNC(=O)CSC [Example 70] — 570-fold higher, 164000 nM
- CC(C)[C@@H](C(=O)NO)N(Cc1ccccc1)S(=O)(=O)c1c(F)c(F)c(F)c(F)c1F [Example 72] — 2200-fold higher, 637000 nM
- COc1ccc(S(=O)(=O)N(Cc2cccnc2)CC(O)CSC(C)=O)cc1 (centres unmarked) [Example 75] — higher, > 100000 nM
- CC(C)[C@H](C(=O)NO)N(Cc1cccnc1)S(=O)(=O)c1ccsc1 [Example 76] — 34-fold higher, 9930 nM
- O=C(NO)[C@@H](Cc1cccs1)N(Cc1ccc(OC(F)(F)F)cc1)S(=O)(=O)c1ccc(O)cc1 [Example 77] — 1.9-fold lower, 150 nM
- CCC[C@@H](C(=O)NO)N(CCc1ccccn1)S(=O)(=O)c1ccc(O)cc1 [Example 78] — within 1.5-fold, 216 nM
- CCOc1ccc(CN([C@H](Cc2cccs2)C(=O)NO)S(=O)(=O)c2ccc(O)cc2)cc1 [Example 81] — 1.9-fold higher, 556 nM
- O=C(NO)[C@@H](Cc1cccs1)N(Cc1cccc(Cl)c1)S(=O)(=O)c1ccc(O)cc1 [Example 83] — 1.8-fold higher, 530 nM
- Cc1cccc(CN([C@H](Cc2cccs2)C(=O)NO)S(=O)(=O)c2ccc(O)cc2)c1 [Example 84] — 1.7-fold higher, 491 nM
- COc1cccc(CN([C@H](Cc2cccs2)C(=O)NO)S(=O)(=O)c2ccc(O)cc2)c1 [Example 89] — 1.6-fold lower, 185 nM
- Cc1ccc(CN([C@H](Cc2cccs2)C(=O)NO)S(=O)(=O)c2ccc(O)cc2)cc1 [Example 90] — within 1.5-fold, 236 nM
- CSCC[C@H](C(=O)NO)N(CCc1ccccc1)S(=O)(=O)c1ccc(O)cc1 [Example 92] — 2.9-fold lower, 99 nM
- COc1ccc(C(C(=O)NO)N(Cc2ccc3[nH]ccc3c2)S(=O)(=O)c2ccc(O)cc2)cc1 (centres unmarked) [Example 93] — 2.5-fold lower, 117 nM
- O=C(NO)[C@@H](Cc1cccs1)N(Cc1ccc(OC(F)F)cc1)S(=O)(=O)c1ccc(O)cc1 [Example 98] — 4.8-fold higher, 1400 nM
- O=C(NO)[C@@H](Cc1cccs1)N(Cc1ccc(OCCF)cc1)S(=O)(=O)c1ccc(O)cc1 [Example 100] — 1.9-fold lower, 150 nM
- C[C@H](C(=O)NO)N(CCc1ccccc1)S(=O)(=O)c1ccc(O)cc1 [Example 105] — 3.2-fold lower, 90 nM
- CCC[C@H](C(=O)NO)N(CCc1ccc2[nH]ccc2c1)S(=O)(=O)c1ccc(O)cc1 [Example 112] — higher, > 10000 nM

What follows are molecules tested against Gelatinase E (GelE) (Enterococcus faecalis (strain ATCC 700802 / V583), UniProt Q833V7) (assay: Gelatinase E activity assay (FRET peptide substrate)). Conditions: Table 11.
Type: biochemical
Description: Gelatinase E (Gel E) was purified from bacterial culture supernatant from E. faecalis. E. faecalis was cultured aerobically in Todd Hewitt Broth overnight at 37° C. Nucleic acid was precipitated with 0.9% protamine solution, followed by protein precipitation with ammonium sulfate. Resuspended protein pellet was further subjected to purification using FPLC (phenyl Sepharose column). Fractions with gelatinase activity as determined by casein agar assay were pooled and further concentrated.
Different concentrations of test compound were incubated with purified GelE and FRET-based peptide substrate (390 MMP FRET Substrate 1; Anaspec AS-27077) in assay buffer at room temperature for 30 minutes. The fluorescence signal was determined by a plate reader.

Sequence of Gelatinase E (GelE) (Q833V7 193-510 limits assumed): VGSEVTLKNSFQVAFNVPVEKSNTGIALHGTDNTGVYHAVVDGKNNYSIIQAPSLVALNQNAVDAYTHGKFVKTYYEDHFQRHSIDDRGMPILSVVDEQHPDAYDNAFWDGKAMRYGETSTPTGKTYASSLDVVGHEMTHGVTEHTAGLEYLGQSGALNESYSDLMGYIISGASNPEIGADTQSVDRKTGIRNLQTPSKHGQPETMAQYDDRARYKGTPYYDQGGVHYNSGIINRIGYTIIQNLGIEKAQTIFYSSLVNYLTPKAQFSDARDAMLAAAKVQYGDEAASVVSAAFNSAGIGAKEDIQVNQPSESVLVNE

Point of comparison: C=CCOc1ccc(S(=O)(=O)N(CC(=O)NO)CC(C)C)cc1 [R], IC50 2420 nM. Against it:
- CC(C)CN(CC(=O)NO)S(=O)(=O)c1ccc(Oc2ccccc2)cc1 [AA] — within 1.5-fold, 1690 nM
- CC(C)CN(CC(=O)NO)S(=O)(=O)c1ccc(OCCCF)cc1 [AB] — within 1.5-fold, 2400 nM
- CC(C)CN(CC(=O)NO)S(=O)(=O)c1ccc(OCC(=O)NCc2ccsc2)cc1 [AC] — 17-fold lower, 139 nM
- Cc1ccc(CNC(=O)COc2ccc(S(=O)(=O)N(CC(=O)NO)CC(C)C)cc2)cc1 [AD] — 16-fold lower, 155 nM
- COc1ccc(CNC(=O)COc2ccc(S(=O)(=O)N(CC(=O)NO)CC(C)C)cc2)cc1 [AE] — 16-fold lower, 156 nM
- CC(C)CN(CC(=O)NO)S(=O)(=O)c1ccc(OCC(=O)NCc2cccc(C(F)(F)F)c2)cc1 [AF] — 21-fold lower, 113 nM
- CC(C)CN(CC(=O)NO)S(=O)(=O)c1ccc(OCC(=O)NCc2cccc(Cl)c2)cc1 [AG, N-(3-chlorobenzyl)-2-(4-(N-(2-(hydroxyamino)-2-oxoethyl)-N-isobutylsulfamoyl)phenoxy)acetamide] — 23-fold lower, 103 nM
- CC(C)CN(CC(=O)NO)S(=O)(=O)c1ccc(OCC(=O)NCc2ccc(C(F)(F)F)cc2)cc1 [AH] — 10-fold lower, 238 nM
- CC(C)CN(CC(=O)NO)S(=O)(=O)c1ccc(OCC(=O)NCc2ccc(Cl)cc2)cc1 [AI] — 15-fold lower, 164 nM
- CC(C)CN(CC(=O)NO)S(=O)(=O)c1ccc(OCC(=O)NCc2ccc(F)cc2)cc1 [AJ] — 7.7-fold lower, 313 nM
- Cc1cccc(CNC(=O)COc2ccc(S(=O)(=O)N(CC(=O)NO)CC(C)C)cc2)c1 [AK] — higher, > 10000 nM
- Cc1ccccc1CNC(=O)COc1ccc(S(=O)(=O)N(CC(=O)NO)CC(C)C)cc1 [AL] — 11-fold lower, 218 nM
- CC(C)CN(CC(=O)NO)S(=O)(=O)c1ccc(OCC(=O)NCc2cccc(F)c2)cc1 [AN] — 15-fold lower, 158 nM
- CC(C)CN(CC(=O)NO)S(=O)(=O)c1ccc(OCC(=O)NCc2cc(F)cc(F)c2)cc1 [AO] — higher, > 10000 nM
- CC(C)CN(CC(=O)NO)S(=O)(=O)c1ccc(OCC(=O)NCc2ccccn2)cc1 [AP] — 14-fold lower, 177 nM
- CSc1cccc(CNC(=O)COc2ccc(S(=O)(=O)N(CC(=O)NO)CC(C)C)cc2)c1 [AQ] — 20-fold lower, 119 nM
- CC(C)CN(CC(=O)NO)S(=O)(=O)c1ccc(OCC(=O)NC(C)c2ccccc2)cc1 (centres unmarked) [AR] — 10-fold lower, 237 nM
- CC(C)CN(CC(=O)NO)S(=O)(=O)c1ccc(OCC(=O)NCc2ccccc2)cc1 [B] — 19-fold lower, 130 nM
- COc1ccc(S(=O)(=O)N(CC(=O)NO)Cc2ccccc2)cc1 [S] — 12-fold lower, 204 nM
- COc1ccc(-n2ccc(CCC(=O)NO)n2)cc1 [V] — 5.2-fold higher, 12700 nM
- CC(C)CN(CC(=O)NO)S(=O)(=O)c1ccc(OCC(F)F)cc1 [X] — 13-fold lower, 180 nM
- COCCN(CC(=O)NO)S(=O)(=O)c1ccc(OC)cc1 [Y] — 2.8-fold higher, 6760 nM
- CC(C)CN(CC(=O)NO)S(=O)(=O)c1ccc(OCCF)cc1 [Z] — 9.8-fold lower, 246 nM

— patent US20230357139A1, “SMALL MOLECULE INHIBITORS OF BACTERIAL TOXINS” (Artizan Biosciences, Inc., priority 2020, published 2023)
